Experimental data: paper PMC10364322, “Evaluation of chronic drug-induced electrophysiological and cytotoxic effects using human-induced pluripotent stem cell-derived cardiomyocytes (hiPSC-CMs)” (Frontiers in Pharmacology, 2023)
Where two headings read alike, the source gives them in different places.

Tested on: hiPSC-CMs (iCell-Cardiomyocytes^2)
Summary of the method: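 Spontaneous field potentials and impedance recorded by MEA at 37°C, 5% CO2 in hiPSC-CM monolayers (50 K/well, fibronectin-coated), 5-min baseline before compound; final DMSO 0.1%. Values are percent change from baseline, mean ± SD, compared with DMSO by Wilcoxon-Mann Whitney, interpreted against DMSO tolerance intervals.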

Cc1cn(-c2cc(NC(=O)c3ccc(C)c(Nc4nccc(-c5cccnc5)n4)c3)cc(C(F)(F)F)c2)cn1 [Nilotinib]
BR (beat rate) % change from baseline (0.01 µM, 2h): 1±2% | Beating below threshold, number of observations/total well numbers (0.01 µM, 2h): 0/5 | Cessation of beating, number of observations/total well numbers (0.01 µM, 2h): 0/5 | EAD, number of observations/total well numbers (0.01 µM, 2h): 0/5 | FPD (field-potential duration), % change from baseline (0.01 µM, 2h): 3.9±3.8% | FPDc (field-potential duration corrected by beat-rate), % change from baseline (0.01 µM, 2h): 4.1±4% | Flat T-wave-like, number of observations/total well numbers (0.01 µM, 2h): 0/5 | BR (beat rate) % change from baseline (0.01 µM, 24h): -1±3% | Beating below threshold, number of observations/total well numbers (0.01 µM, 24h): 0/5 | Cessation of beating, number of observations/total well numbers (0.01 µM, 24h): 0/5 | EAD, number of observations/total well numbers (0.01 µM, 24h): 0/5 | FPD (field-potential duration), % change from baseline (0.01 µM, 24h): 6.4±4.8% | FPDc (field-potential duration corrected by beat-rate), % change from baseline (0.01 µM, 24h): 6.1±4.9% | Flat T-wave-like, number of observations/total well numbers (0.01 µM, 24h): 0/5 | BR (beat rate) % change from baseline (0.01 µM, 48h): -3±2% | Beating below threshold, number of observations/total well numbers (0.01 µM, 48h): 0/5 | Cessation of beating, number of observations/total well numbers (0.01 µM, 48h): 0/5 | EAD, number of observations/total well numbers (0.01 µM, 48h): 0/5 | FPD (field-potential duration), % change from baseline (0.01 µM, 48h): 12.9±12.2% | FPDc (field-potential duration corrected by beat-rate), % change from baseline (0.01 µM, 48h): 11.9±11.5% | Flat T-wave-like, number of observations/total well numbers (0.01 µM, 48h): 0/5 | BR (beat rate) % change from baseline (0.01 µM, 72h): -8±2% | Beating below threshold, number of observations/total well numbers (0.01 µM, 72h): 0/5 | Cessation of beating, number of observations/total well numbers (0.01 µM, 72h): 0/5 | EAD, number of observations/total well numbers (0.01 µM, 72h): 0/5 | FPD (field-potential duration), % change from baseline (0.01 µM, 72h): 10.1±2.4% | FPDc (field-potential duration corrected by beat-rate), % change from baseline (0.01 µM, 72h): 7.1±2.3% | Flat T-wave-like, number of observations/total well numbers (0.01 µM, 72h): 0/5 | BR (beat rate) % change from baseline (0.01 µM, 96h): -14±3% | Beating below threshold, number of observations/total well numbers (0.01 µM, 96h): 0/5 | Cessation of beating, number of observations/total well numbers (0.01 µM, 96h): 0/5 | EAD, number of observations/total well numbers (0.01 µM, 96h): 0/5 | FPD (field-potential duration), % change from baseline (0.01 µM, 96h): 13.9±2.5% | FPDc (field-potential duration corrected by beat-rate), % change from baseline (0.01 µM, 96h): 8.7±2.6% | Flat T-wave-like, number of observations/total well numbers (0.01 µM, 96h): 0/5 | BR (beat rate) % change from baseline (0.1 µM, 2h): -1±1% | Beating below threshold, number of observations/total well numbers (0.1 µM, 2h): 0/5 | Cessation of beating, number of observations/total well numbers (0.1 µM, 2h): 0/5 | EAD, number of observations/total well numbers (0.1 µM, 2h): 0/5 | FPD (field-potential duration), % change from baseline (0.1 µM, 2h): 8.9±9.8% | FPDc (field-potential duration corrected by beat-rate), % change from baseline (0.1 µM, 2h): 8.6±10.1% | Flat T-wave-like, number of observations/total well numbers (0.1 µM, 2h): 0/5 | BR (beat rate) % change from baseline (0.1 µM, 24h): -8±3% | Beating below threshold, number of observations/total well numbers (0.1 µM, 24h): 0/5 | Cessation of beating, number of observations/total well numbers (0.1 µM, 24h): 0/5 | EAD, number of observations/total well numbers (0.1 µM, 24h): 0/5 | FPD (field-potential duration), % change from baseline (0.1 µM, 24h): 19.8±3.9 % | FPDc (field-potential duration corrected by beat-rate), % change from baseline (0.1 µM, 24h): 16.6±4.1 % | Flat T-wave-like, number of observations/total well numbers (0.1 µM, 24h): 0/5 | BR (beat rate) % change from baseline (0.1 µM, 48h): -8±4% | Beating below threshold, number of observations/total well numbers (0.1 µM, 48h): 0/5 | Cessation of beating, number of observations/total well numbers (0.1 µM, 48h): 0/5 | EAD, number of observations/total well numbers (0.1 µM, 48h): 0/5 | FPD (field-potential duration), % change from baseline (0.1 µM, 48h): 15.4±2.6% | FPDc (field-potential duration corrected by beat-rate), % change from baseline (0.1 µM, 48h): 12.7±3% | Flat T-wave-like, number of observations/total well numbers (0.1 µM, 48h): 0/5 | BR (beat rate) % change from baseline (0.1 µM, 72h): -11±4% | Beating below threshold, number of observations/total well numbers (0.1 µM, 72h): 0/5 | Cessation of beating, number of observations/total well numbers (0.1 µM, 72h): 0/5 | EAD, number of observations/total well numbers (0.1 µM, 72h): 0/5 | FPD (field-potential duration), % change from baseline (0.1 µM, 72h): 17.3±1.9% | FPDc (field-potential duration corrected by beat-rate), % change from baseline (0.1 µM, 72h): 12.5±1.7% | Flat T-wave-like, number of observations/total well numbers (0.1 µM, 72h): 0/5 | BR (beat rate) % change from baseline (0.1 µM, 96h): -18±4% | Beating below threshold, number of observations/total well numbers (0.1 µM, 96h): 0/5 | Cessation of beating, number of observations/total well numbers (0.1 µM, 96h): 0/5 | EAD, number of observations/total well numbers (0.1 µM, 96h): 0/5 | FPD (field-potential duration), % change from baseline (0.1 µM, 96h): 19.6±3.2% | FPDc (field-potential duration corrected by beat-rate), % change from baseline (0.1 µM, 96h): 11.8±4.2% | Flat T-wave-like, number of observations/total well numbers (0.1 µM, 96h): 0/5 | BR (beat rate) % change from baseline (0.3 µM, 2h): -4±1% | Beating below threshold, number of observations/total well numbers (0.3 µM, 2h): 0/5 | Cessation of beating, number of observations/total well numbers (0.3 µM, 2h): 0/5 | EAD, number of observations/total well numbers (0.3 µM, 2h): 0/5 | FPD (field-potential duration), % change from baseline (0.3 µM, 2h): 22.4±5.4 % | FPDc (field-potential duration corrected by beat-rate), % change from baseline (0.3 µM, 2h): 20.8±5.2 % | Flat T-wave-like, number of observations/total well numbers (0.3 µM, 2h): 0/5 | BR (beat rate) % change from baseline (0.3 µM, 24h): -17±2 % | Beating below threshold, number of observations/total well numbers (0.3 µM, 24h): 0/5 | Cessation of beating, number of observations/total well numbers (0.3 µM, 24h): 0/5 | EAD, number of observations/total well numbers (0.3 µM, 24h): 0/5 | FPD (field-potential duration), % change from baseline (0.3 µM, 24h): 61.6±9.1 % | FPDc (field-potential duration corrected by beat-rate), % change from baseline (0.3 µM, 24h): 52.4±8.3 % | Flat T-wave-like, number of observations/total well numbers (0.3 µM, 24h): 0/5 | BR (beat rate) % change from baseline (0.3 µM, 48h): -13±1% | Beating below threshold, number of observations/total well numbers (0.3 µM, 48h): 0/5 | Cessation of beating, number of observations/total well numbers (0.3 µM, 48h): 0/5 | EAD, number of observations/total well numbers (0.3 µM, 48h): 0/5 | FPD (field-potential duration), % change from baseline (0.3 µM, 48h): 46.7±15.8 % | FPDc (field-potential duration corrected by beat-rate), % change from baseline (0.3 µM, 48h): 39.9±14.5 % | Flat T-wave-like, number of observations/total well numbers (0.3 µM, 48h): 0/5 | BR (beat rate) % change from baseline (0.3 µM, 72h): -19±3 % | Beating below threshold, number of observations/total well numbers (0.3 µM, 72h): 0/5 | Cessation of beating, number of observations/total well numbers (0.3 µM, 72h): 0/5 | EAD, number of observations/total well numbers (0.3 µM, 72h): 0/5 | FPD (field-potential duration), % change from baseline (0.3 µM, 72h): 59.3±17.6 % | FPDc (field-potential duration corrected by beat-rate), % change from baseline (0.3 µM, 72h): 48.5±15 % | Flat T-wave-like, number of observations/total well numbers (0.3 µM, 72h): 0/5 | BR (beat rate) % change from baseline (0.3 µM, 96h): -23±2% | Beating below threshold, number of observations/total well numbers (0.3 µM, 96h): 0/5 | Cessation of beating, number of observations/total well numbers (0.3 µM, 96h): 0/5 | EAD, number of observations/total well numbers (0.3 µM, 96h): 0/5 | FPD (field-potential duration), % change from baseline (0.3 µM, 96h): 57±11 % | FPDc (field-potential duration corrected by beat-rate), % change from baseline (0.3 µM, 96h): 44.7±10.1 % | Flat T-wave-like, number of observations/total well numbers (0.3 µM, 96h): 1/5 | wells displaying EAD-like events (1 µM): one of five wells | BR (beat rate) % change from baseline (1 µM, 2h): -15±5 % | Beating below threshold, number of observations/total well numbers (1 µM, 2h): 0/5 | Cessation of beating, number of observations/total well numbers (1 µM, 2h): 0/5 | EAD, number of observations/total well numbers (1 µM, 2h): 1/5 | FPD (field-potential duration), % change from baseline (1 µM, 2h): 80.6±28.8 % | FPDc (field-potential duration corrected by beat-rate), % change from baseline (1 µM, 2h): 70.6±24.2 % | Flat T-wave-like, number of observations/total well numbers (1 µM, 2h): 0/5 | BR (beat rate) % change from baseline (1 µM, 24h): -42±3 % | Beating below threshold, number of observations/total well numbers (1 µM, 24h): 0/5 | Cessation of beating, number of observations/total well numbers (1 µM, 24h): 0/5 | EAD, number of observations/total well numbers (1 µM, 24h): 1/5 | FPD (field-potential duration), % change from baseline (1 µM, 24h): 264.1±51.3 % | FPDc (field-potential duration corrected by beat-rate), % change from baseline (1 µM, 24h): 200.7±36.5 % | Flat T-wave-like, number of observations/total well numbers (1 µM, 24h): 2/5 | BR (beat rate) % change from baseline (1 µM, 48h): -37±3 % | Beating below threshold, number of observations/total well numbers (1 µM, 48h): 0/5 | Cessation of beating, number of observations/total well numbers (1 µM, 48h): 0/5 | EAD, number of observations/total well numbers (1 µM, 48h): 1/5 | FPD (field-potential duration), % change from baseline (1 µM, 48h): 209.3±40.8 % | FPDc (field-potential duration corrected by beat-rate), % change from baseline (1 µM, 48h): 164.9±31.8 % | BR (beat rate) % change from baseline (1 µM, 72h): -44±3 % | Beating below threshold, number of observations/total well numbers (1 µM, 72h): 0/5 | Cessation of beating, number of observations/total well numbers (1 µM, 72h): 0/5 | EAD, number of observations/total well numbers (1 µM, 72h): 1/5 | FPD (field-potential duration), % change from baseline (1 µM, 72h): 260.2±58.2 % | FPDc (field-potential duration corrected by beat-rate), % change from baseline (1 µM, 72h): 196.4±43 % | Flat T-wave-like, number of observations/total well numbers (1 µM, 72h): 1/5 | BR (beat rate) % change from baseline (1 µM, 96h): -43±3 % | Beating below threshold, number of observations/total well numbers (1 µM, 96h): 0/5 | Cessation of beating, number of observations/total well numbers (1 µM, 96h): 0/5 | EAD, number of observations/total well numbers (1 µM, 96h): 1/5 | FPD (field-potential duration), % change from baseline (1 µM, 96h): 208.7±49.5 % | FPDc (field-potential duration corrected by beat-rate), % change from baseline (1 µM, 96h): 156.3±38.4 % | Flat T-wave-like, number of observations/total well numbers (1 µM, 96h): 1/5 | prolongation of FPD (1 and 0.3 µM, acute and chronic time points): significant dose-dependent prolongation of the FPD | cessation of beating (any concentration): no cessation of beating occurred in any concentration
